This passage reports EC50 results from patent US11299512B2 (priority 2016, dated 2022).

For this assay, the system named is THP1 luciferase reporter cells. Description: cells. The assay is classed as cell-based.
Setting [1] is: 16 hours, read-out: THP1-ISG-Luc with PFO, EC50.
Setting [2] is: 16 hours, read-out: THP-ISG-Luc without PFO, EC50.
[3] abbreviates: Homo sapiens, THP-1, 16 h, read-out: THP1-ISG-Luc with PFO, EC50.
Setting [4] is: Homo sapiens, THP-1, 16 h, read-out: THP-ISG-Luc without PFO, EC50.

Read-outs that look alike come from different tables or passages of the source.

The term EC50 denotes the concentration that produces a half-maximal response. With `Nc1nc2c(ccn2[C@@H]2O[C@@H]3COP(=O)(S)OC4C(O)[C@@H](COP(=O)(O)OC3C2O)O[C@H]4n2ccc3c(N)ncnc32)c(=O)[nH]1` (single isomer, unassigned) [EC9], the EC50 runs as follows: under setting [1], above 1000 nM; under setting [2], above 100000 nM.
Taken in the same sequence, the figures for `Nc1nc2c(ncn2[C@@H]2O[C@@H]3COP(=O)(O)OC4C[C@H](n5ccc6ccccc65)O[C@@H]4COP(=O)(S)OC2C3O)c(=O)[nH]1` (single isomer, unassigned) [EC18] were above 1000 nM and above 100000 nM.
Turning to `Nc1nc2c(ncn2[C@@H]2O[C@@H]3COP(=O)(O)OC4C(O)[C@H](n5cnc6c(N)ncnc65)O[C@@H]4CNc4c(c(=O)c4=O)NC2C3O)c(=O)[nH]1` (stereo in doubt) [EC22], the concentration for a half-maximal effect (EC50) runs as follows: under setting [3], above 1000 nM; under setting [4], above 100000 nM.
For the molecule `BP1(=O)OC[C@H]2O[C@@H](n3cnc4c(N)ncnc43)C(O)[C@H]2OP(=O)(O)OC[C@H]2O[C@@H](n3cnc4c(=O)[nH]c(N)nc43)[C@@H](O1)C2O` (single isomer, unassigned) [Example E25], the EC50 under setting [3] is below 100 nM and the half-maximal effective concentration (EC50) under setting [4] is below 30000 nM.
Taken in the same sequence, the figures for `Nc1nc2c(ncn2[C@@H]2O[C@@H]3COP(=O)(O)OC4C(O)[C@H](n5ccc6c(N)ncnc65)O[C@@H]4COP(=O)(O)OC2C3O)c(=O)[nH]1` (stereo in doubt) [Example E5] were above 1000 nM and above 100000 nM.
As for `Nc1nc2c(ccn2[C@@H]2O[C@@H]3COP(=O)(O)OC4C(O)[C@H](n5ccc6c(N)ncnc65)O[C@@H]4COP(=O)(S)OC2C3O)c(=O)[nH]1` (single isomer, unassigned) [EB2], the EC50 runs as follows: under setting [1], below 100 nM; under setting [2], below 30000 nM.
The matching figures for `Nc1nc2c(ncn2[C@@H]2O[C@@H]3COP(=O)(S)OC4C(O)[C@H](n5cnc6c(N)ncnc65)O[C@@H]4COP(=O)(S)OC2C3O)c(=O)[nH]1` (single isomer, unassigned) [Example E14]: 100 to 1000 nM and above 100000 nM.
Regarding `Nc1nc2c(ncn2[C@@H]2O[C@@H]3COP(=O)(O)OC4C[C@H](c5ccc6ccc7cccc8ccc5c6c78)O[C@@H]4COP(=O)(S)OC2C3O)c(=O)[nH]1` (single isomer, unassigned) [EC20], the EC50 under setting [3] was above 1000 nM and the half-maximal effective concentration (EC50) under setting [4] is above 100000 nM.
For the molecule `Nc1ncnc2c1ccn2[C@@H]1O[C@@H]2COP(=O)(S)OC3C(O)[C@@H](COP(=O)(O)OC2C1O)O[C@H]3n1ccc2c(N)ncnc21` (stereo partly shown) [EC7], the EC50 is above 1000 nM under setting [1] and above 100000 nM under setting [2].
Turning to `Nc1nc2c(ncn2[C@@H]2O[C@@H]3COP(=O)(O)OC4C[C@H](c5cccc6ccccc56)O[C@@H]4COP(=O)(O)OC2C3OCC(F)(F)F)c(=O)[nH]1` (stereo in doubt) [EC19], the EC50 is above 1000 nM under setting [3] and above 100000 nM under setting [4].
For `Nc1nc2c(ncn2[C@@H]2O[C@@H]3COP(=O)(S)OC4C(O)[C@H](n5ccc6c(N)ncnc65)O[C@@H]4COP(=O)(S)OC2C3O)c(=O)[nH]1` (single isomer, unassigned) [Example E17], the EC50 is above 1000 nM under setting [1] and above 100000 nM under setting [2].
Taken in the same sequence, the figures for `Nc1nc2c(ncn2[C@@H]2O[C@@H]3COP(=O)(O)OC4C[C@H](c5ccc6ccc7cccc8ccc5c6c78)O[C@@H]4COP(=O)(S)OC2C3O)c(=O)[nH]1` (single isomer, unassigned) [EC21] were above 1000 nM and above 100000 nM.
Taken in the same sequence, the figures for `Nc1nc2c(ncn2[C@@H]2O[C@@H]3COP(=O)(S)OC4C(O)[C@H](n5cnc6c(N)ncnc65)O[C@@H]4COP(=O)(O)OC2C3O)c(=O)[nH]1` (single isomer, unassigned) [Example E7] were below 100 nM and below 30000 nM.
In the case of `Nc1nc2c(ccn2[C@@H]2O[C@@H]3COP(=O)(S)O[C@@H]4C(O)[C@H](n5cnc6c(N)ncnc65)O[C@@H]4COP(=O)(S)O[C@H]2C3O)c(=O)[nH]1` (single isomer, unassigned) [EA7], the EC50 runs as follows: under setting [3], 100 to 1000 nM; under setting [4], below 30000 nM.
Taken in the same sequence, the figures for `Nc1nc2c(ccn2[C@@H]2O[C@@H]3COP(=O)(O)OC4C(O)[C@H](n5cnc6c(N)ncnc65)O[C@@H]4COP(=O)(S)OC2C3O)c(=O)[nH]1` (stereo in doubt) [EB3] were below 100 nM and below 30000 nM.
The matching figures for `Nc1nc2c(ncn2[C@@H]2O[C@@H]3COP(=O)(O)OC4C(O)[C@@H](COP(=O)(O)OC2C3OCC(F)(F)F)O[C@H]4n2cnc3c(N)ncnc32)c(=O)[nH]1` (stereo in doubt) [EC13]: 100 to 1000 nM and below 30000 nM.
Taken in the same sequence, the figures for `Nc1nc2c(ncn2[C@@H]2O[C@@H]3COP(=O)(O)OC4C(O)[C@H](n5cnc6c(N)ncnc65)O[C@@H]4COP(=O)(O)OC2C3OCC(F)(F)F)c(=O)[nH]1` (stereo in doubt) [EA2] were below 100 nM and below 30000 nM.
Turning to `Nc1nc2c(ccn2[C@@H]2O[C@@H]3COP(=O)(O)OC4C(O)[C@H](n5ccc6c(N)ncnc65)O[C@@H]4COP(=O)(S)OC2C3O)c(=O)[nH]1` (single isomer, unassigned) [EB1], the concentration giving a half-maximal response (EC50) is, setting by setting: under setting [1], above 1000 nM; under setting [4], 30000 to 100000 nM.
As to `Nc1nc2c(ccn2[C@@H]2O[C@@H]3COP(=O)(O)OC4C(O)[C@H](n5cnc6c(N)ncnc65)O[C@@H]4COP(=O)(S)OC2C3O)c(=O)[nH]1` (single isomer, unassigned) [EB4], the EC50 runs as follows: under setting [3], above 1000 nM; under setting [4], 30000 to 100000 nM.
`Nc1nc2c(ncn2[C@@H]2O[C@@H]3COP(=O)(O)O[C@@H]4C(O)[C@H](n5cnc6c(N)ncnc65)O[C@@H]4COP(=O)(N4CCOCC4)OC2[C@H]3O)c(=O)[nH]1` (stereo partly shown) [Example E24]: the EC50 runs as follows: (Homo sapiens, THP-1, 16 hours, read-out: THP1-ISG-Luc with PFO, EC50) 100 to 1000 nM; (Homo sapiens, THP-1, 16 hours, read-out: THP-ISG-Luc without PFO, EC50) below 30000 nM.
Consider `Nc1nc2c(ccn2[C@@H]2O[C@@H]3COP(=O)(S)OC4C(O)[C@H](n5cnc6c(N)ncnc65)O[C@@H]4COP(=O)(S)OC2C3O)c(=O)[nH]1` (single isomer, unassigned) [EA6], for which the half-maximal effective concentration (EC50) was above 1000 nM under setting [1] and above 100000 nM under setting [2].
Taken in the same sequence, the figures for `Nc1nc2c(ncn2[C@@H]2O[C@@H]3COP(=O)(S)OC4C(O)[C@H](n5ncc6c(N)ncnc65)O[C@@H]4COP(=O)(S)OC2C3O)c(=O)[nH]1` (single isomer, unassigned) [EA4] were 100 to 1000 nM and below 30000 nM.
The matching figures for `Nc1nc2c(ccn2[C@@H]2O[C@@H]3COP(=O)(S)OC4C(O)[C@@H](COP(=O)(O)OC3C2O)O[C@H]4n2ccc3c(=O)[nH]c(N)nc32)c(=O)[nH]1` (single isomer, unassigned) [EC5]: 100 to 1000 nM and 30000 to 100000 nM.
For the molecule EC23, the 50% effective concentration (EC50) reads like this: under setting [1], above 1000 nM; under setting [2], above 100000 nM.
Turning to `Nc1nc2c(ccn2[C@@H]2O[C@@H]3COP(=O)(O)OC4C(O)[C@@H](COP(=O)(S)OC2C3O)O[C@H]4n2cnc3c(N)ncnc32)c(=O)[nH]1` (single isomer, unassigned) [EC15], the concentration for a half-maximal effect (EC50) is 100 to 1000 nM under setting [1] and below 30000 nM under setting [2].
In the case of `Nc1nc2c(ccn2[C@@H]2O[C@@H]3COP(=O)(S)OC4C(O)[C@H](n5ccc6c(N)ncnc65)O[C@@H]4COP(=O)(S)OC2C3O)c(=O)[nH]1` (single isomer, unassigned) [Example E21], the 50% effective concentration (EC50) by setting is: under setting [1], 100 to 1000 nM; under setting [2], below 30000 nM.
